These results are taken from ChEMBL document CHEMBL1129823, “Cytotoxicity and actin depolymerizing activity of aplyronine A, a potent antitumor macrolide of marine origin, and the natural and artificial analogs” (Bioorg Med Chem Lett, 1997).

Values after ≈ are worked out from the molar mass of the structure shown. Active and inactive are the calls of the source. The rule behind the calls is not given here.

The species named for experiment [1] is Oryctolagus cuniculus. As to the kind of experiment: Relative potency was calculated from the Actin depolymerizing activity (aplyronine A = 100). It counts as functional.
Experiment [2] in a line: F-Actin (40 uM) depolymerizing activity which was monitored by measuring flow birefringence. It counts as functional, Oryctolagus cuniculus.
Experiment [3] deals with HeLa. As to the kind of experiment: Evaluated for the cytotoxicity against HeLa S3 cells. It is filed as functional, cell-based. The settings on record: Homo sapiens.
Experiment [4] concerns HeLa. Description: Relative potency was calculated from the cytotoxicity against HeLa S3 cells (aplyronine A = 100). It is filed as functional, Homo sapiens.
Experiment [5] in a line: Compound was evaluated for the F-Actin (40 uM) depolymerizing activity* which was monitored by measuring flow birefringence (Actin was extracted in cold water from the acetone-dried powder of rabbit skeletal muscle). It counts as functional, tissue-based, Oryctolagus cuniculus, Muscle tissue.
For experiment [6], the species on record is Oryctolagus cuniculus. Description: Relative potency was calculated from the Actin depolymerizing activity (aplyronine A = 100); Inactive. It counts as functional.
Experiment [7] is described as follows: Compound was evaluated for the F-Actin (40 uM) depolymerizing activity which was monitored by measuring flow birefringence (Actin was extracted in cold water from the acetone-dried powder of rabbit skeletal muscle); Inactive. It is filed as functional, tissue-based, Oryctolagus cuniculus, Muscle tissue.
Experiment [8] is described as follows: Compound was evaluated for the F-Actin (40 uM) depolymerizing activity which was monitored by measuring flow birefringence (Actin was extracted in cold water from the acetone-dried powder of rabbit skeletal muscle). It is filed as functional, tissue-based, Oryctolagus cuniculus, Muscle tissue.

Consider `COCC(C(=O)O[C@@H]1C/C=C/C=C/C(=O)O[C@H]([C@@H](C)[C@@H](O)[C@@H](C)CC[C@@H](OC(=O)C(C)N(C)C)[C@H](C)[C@H](OC(C)=O)[C@H](C)CCO)C/C=C/[C@H](OC)C[C@H](C)C/C=C(\C)[C@@H](OC)CC[C@@H](C)[C@@H](O)[C@@H]1C)N(C)C` (stereo not given in full), for which the figures for the Relative potency in the experiment listed under Oryctolagus cuniculus [1] and in the experiment with HeLa [4] were 40 and 28, respectively. In addition, the IC50 was determined as 78 µM in experiment [2] and 0.00172 µg/mL (≈ 0.00166 µM) in the experiment with HeLa [3].
The like results for `COCC(C(=O)O[C@@H]1C/C=C/C=C/C(=O)O[C@H]([C@@H](C)[C@@H](O)[C@@H](C)CC[C@@H](O)[C@H](C)[C@H](OC(C)=O)[C@H](C)CCO)C/C=C/[C@H](OC)C[C@H](C)C/C=C/[C@@H](OC)CC[C@@H](C)[C@@H](O)[C@@H]1C)N(C)C` (stereo not given in full) were, in that order, 86, 1.3, 36 µM and 0.037 µg/mL (≈ 0.04 µM).
Consider `COCC(C(=O)O[C@@H]1CCCCCC(=O)O[C@H]([C@@H](C)[C@@H](O)[C@@H](C)CC[C@@H](OC(=O)C(C)N(C)C)[C@H](C)[C@H](OC(C)=O)[C@H](C)CCO)C/C=C/[C@H](OC)C[C@H](C)C/C=C(\C)[C@@H](OC)CC[C@@H](C)[C@@H](O)[C@@H]1C)N(C)C` (stereo not given in full), for which the Relative potency in the experiment filed under Oryctolagus cuniculus [1] was 44; with HeLa [4] it was 0.84. Besides, the IC50 amounted to 70 µM in experiment [2] and 0.057 µg/mL (≈ 0.0547 µM) in the experiment on HeLa [3].
The matching figures for `CO[C@H]1CC[C@@H](C)[C@@H](O)[C@H](C)[C@H](O)C/C=C/C=C/C(=O)O[C@H]([C@@H](C)[C@@H](O)[C@@H](C)CC[C@@H](O)[C@H](C)[C@H](OC(C)=O)[C@H](C)/C=C/N(C)C=O)C/C=C/[C@H](OC)C[C@H](C)C/C=C/1C`: 86, 0.42, 35 µM and 0.113 µg/mL (≈ 0.133 µM).
The matching figures for `COCC(C(=O)O[C@@H]1C/C=C/C=C/C(=O)O[C@H]([C@@H](C)[C@@H](O)[C@@H](C)CC[C@@H](O)[C@H](C)[C@H](OC(C)=O)[C@H](C)/C=C/N(C)C=O)C/C=C/[C@H](OC)C[C@H](C)C/C=C(\C)[C@@H](OC)CC[C@@H](C)[C@@H](O)[C@@H]1C)N(C)C` (stereo not given in full): 86, 47, 35 µM and 0.00103 µg/mL (≈ 0.00105 µM).
`C[C@H]([C@H](O)[C@H](C)CCO)[C@H](O)CC[C@H](C)[C@H](O)[C@H](C)[C@@H](O)CCO` came in with an IC50 in experiment [5] of 7600 µM. The Relative potency in the experiment filed under Oryctolagus cuniculus [1] is 0.41.
For the compound `COCC(C(=O)O[C@@H]1C/C=C/C=C/C(=O)OCC/C=C/[C@H](OC)C[C@H](C)C/C=C(\C)[C@@H](OC)CC[C@@H](C)[C@@H](O)[C@@H]1C)N(C)C` (stereo not given in full), the IC50 in the experiment on HeLa [3] was 2.1 µg/mL (≈ 3.38 µM). Further, in the experiment with HeLa [4], the Relative potency was 0.023.
On to `COCC(C(=O)O[C@@H]1C/C=C/C=C/C(=O)O[C@H]([C@@H](C)[C@@H](O)[C@@H](C)CC[C@@H](O)[C@H](C)[C@H](O)[C@H](C)CCO)C/C=C/[C@H](OC)C[C@H](C)C/C=C/[C@@H](OC)CC[C@@H](C)[C@@H](O)[C@@H]1C)N(C)C` (stereo not given in full), for which the Relative potency in the experiment filed under Oryctolagus cuniculus [1] was 16; with HeLa [4], 0.58. Further, the IC50 in experiment [2] came to 190 µM; in the experiment with HeLa [3], 0.083 µg/mL (≈ 0.0941 µM).
For the compound `COCC(C(=O)O[C@@H]1C/C=C/C=C/C(=O)O[C@H]([C@@H](C)[C@@H](O)[C@@H](C)CC[C@@H](OC(=O)C(C)N(C)C)[C@H](C)[C@H](OC(C)=O)[C@H](C)CCO)C/C=C/[C@H](OC)C[C@H](C)C/C=C/[C@@H](OC)CC[C@@H](C)[C@@H](O)[C@@H]1C)N(C)C` (stereo not given in full), the Relative potency is 82 in the experiment listed under Oryctolagus cuniculus [1] and 18 in the experiment on HeLa [4]. Also, the IC50 in experiment [2] came to 38 µM; in the experiment with HeLa [3], 0.0026 µg/mL (≈ 0.00254 µM).
In the case of `COCC(C(=O)O[C@@H]1C/C=C/C=C/C(=O)OCC/C=C/[C@H](OC)C[C@H](C)C/C=C/[C@@H](OC)CC[C@@H](C)[C@@H](O)[C@@H]1C)N(C)C` (stereo not given in full), the Relative potency entry in the experiment filed under Oryctolagus cuniculus [6] is “inactive”. The IC50 entry in experiment [7] was “Not Active”.
For `COCC(C(=O)O[C@@H]1C/C=C/C=C/C(=O)O[C@H]([C@@H](C)[C@@H](O)[C@@H](C)CO)C/C=C/[C@H](OC)C[C@H](C)C/C=C/[C@@H](OC)CC[C@@H](C)[C@@H](O)[C@@H]1C)N(C)C` (stereo not given in full), the Relative potency is 0.69 in the experiment filed under Oryctolagus cuniculus [1] and less than 0.02 in the experiment on HeLa [4]. Besides, the results for the concentration for half-maximal inhibition (IC50) (in the experiment on HeLa [3]; in experiment [8]) were greater than 2 µg/mL and 4500 µM, respectively.
For `COCC(C(=O)O[C@H]1[C@H](C)[C@H](O)C/C=C/C=C/C(=O)O[C@H]([C@@H](C)[C@@H](O)[C@@H](C)CC[C@@H](OC(=O)C(C)N(C)C)[C@H](C)[C@H](OC(C)=O)[C@H](C)/C=C/N(C)C=O)C/C=C/[C@H](OC)C[C@H](C)C/C=C(\C)[C@@H](OC)CC[C@H]1C)N(C)C` (stereo not given in full) [APLYRONINE B], the Relative potency in the experiment filed under Oryctolagus cuniculus [1] was 94; in the experiment on HeLa [4], 15. In addition, the figures for the IC50 (in experiment [2]; in the experiment on HeLa [3]) were 33 µM and 0.00311 µg/mL (≈ 0.00289 µM), respectively.
Regarding `COCC(C(=O)O[C@@H]1C/C=C/C=C/C(=O)O[C@H]([C@@H](C)[C@@H](O)[C@@H](C)COC(=O)C(C)N(C)C)C/C=C/[C@H](OC)C[C@H](C)C/C=C/[C@@H](OC)CC[C@@H](C)[C@@H](O)[C@@H]1C)N(C)C` (stereo not given in full), the Relative potency in the experiment listed under Oryctolagus cuniculus [1] was 1.7. In experiment [2], this compound registered an IC50 of 1800 µM.
In the case of `CO[C@@H]1/C=C/C[C@@H](C)C[C@@H](OC)/C=C/C[C@@H]([C@@H](C)[C@@H](O)[C@@H](C)CC[C@@H](OC(=O)CN(C)C)[C@H](C)[C@H](OC(C)=O)[C@H](C)CCO)OC(=O)/C=C/C=C/C[C@@H](OC(=O)CN(C)C)[C@@H](C)[C@H](O)[C@H](C)CC1`, the Relative potency in the experiment filed under Oryctolagus cuniculus [1] was 63; with HeLa [4], less than 0.02. The results for the IC50 (in experiment [2]; in the experiment on HeLa [3]) were 49 µM and greater than 2 µg/mL, respectively.
On to `CO[C@H]1CC[C@@H](C)[C@@H](O)[C@H](C)[C@H](O)C/C=C/C=C/C(=O)O[C@H]([C@@H](C)[C@@H](O)[C@@H](C)CC[C@@H](OC(=O)C(C)N(C)C)[C@H](C)[C@H](OC(C)=O)[C@H](C)/C=C/N(C)C=O)C/C=C/[C@H](OC)C[C@H](C)C/C=C/1C` (stereo not given in full) [APLYRONINE C], for which the Relative potency was 97 in the experiment listed under Oryctolagus cuniculus [1] and 2.3 in the experiment on HeLa [4]. For the same compound, the IC50 in experiment [2] stood at 32 µM; with HeLa [3], 0.0212 µg/mL (≈ 0.0224 µM).
The matching figures for `COCC(C(=O)O[C@@H]1C/C=C/C=C/C(=O)O[C@H]([C@@H](C)[C@@H](O)[C@@H](C)CC[C@@H](OC(=O)C(C)N(C)C)[C@H](C)[C@H](OC(C)=O)[C@H](C)/C=C/N(C)C=O)C/C=C/[C@H](OC)C[C@H](C)C/C=C(\C)[C@@H](OC)CC[C@@H](C)[C@@H](O)[C@@H]1C)N(C)C` (stereo not given in full) [APLYRONINE A]: 100, 100, 31 µM and 0.00048 µg/mL (≈ 0.000446 µM).
The matching figures for `COCC(C(=O)O[C@@H]1C/C=C/C=C/C(=O)O[C@H]([C@@H](C)[C@@H](OC(C)=O)[C@@H](C)CC[C@@H](OC(=O)C(C)N(C)C)[C@H](C)[C@H](OC(C)=O)[C@H](C)/C=C/N(C)C=O)C/C=C/[C@H](OC)C[C@H](C)C/C=C(\C)[C@@H](OC)CC[C@@H](C)[C@@H](OC(C)=O)[C@@H]1C)N(C)C` (stereo not given in full): 54, 0.22, 57 µM and 0.216 µg/mL (≈ 0.186 µM).
